{
  "source": "patent US20020102893A1",
  "about": "“ANTI-TACK SPANDEX FIBERS CONTAINING ANTIMICROBIAL AGENTS THEREIN AND FABRICS MADE THEREFROM” (priority 2000, published 2002)",
  "key": {"[1]": {"test": "Discoloration (photoreduction) of spandex yarns after exposure to indoor fluorescent light", "assay_type": "physicochemical", "conditions": "after 1 month under typical indoor (fluorescent) light; antimicrobial within spandex yarn", "protocol": "The Example spandex yarns were also tested for discoloration (photoreduction) after exposure to typical indoor (fluorescent) light after 1 month of such storage. […] Thus, for this purpose AlphaSan®-type antimicrobials are most preferred. […] Thus, for anti-tack, discoloration, and resiliency within and on the target spandex yarns, the AlphaSan® antimicrobials are, again, most preferred. The discoloration results are as follows, again with a non-antimicrobial control for comparison: […]"}, "[2]": {"conditions": "no test described; cited from earlier work"}},
  "data": [
    {"smiles": "Oc1cc(Cl)ccc1Oc1ccc(Cl)cc1Cl", "note": "[triclosan]", "values": [
      {"measurement": "discoloration (photoreduction) performance, in words", "setting": "[1]", "value": "excellent colorations"},
      {"measurement": "water solubility", "setting": "[2]", "value": "highly water soluble"}
    ]}
  ]
}
